Results as given in ChEMBL document CHEMBL4152382, “Discovery of Tarantula Venom-Derived NaV1.7-Inhibitory JzTx-V Peptide 5-Br-Trp24 Analogue AM-6120 with Systemic Block of Histamine-Induced Pruritis” (J Med Chem, 2018).

target: Sodium channel protein type 9 subunit alpha (Homo sapiens, UniProt Q15858); experiment: Inhibition of human Nav1.7 expressed in HEK293 cells at holding potential of -125 mV […] by patchxpress-based electrophysiology assay; assay type: cell-based
Sequence (Q15858 whole entry): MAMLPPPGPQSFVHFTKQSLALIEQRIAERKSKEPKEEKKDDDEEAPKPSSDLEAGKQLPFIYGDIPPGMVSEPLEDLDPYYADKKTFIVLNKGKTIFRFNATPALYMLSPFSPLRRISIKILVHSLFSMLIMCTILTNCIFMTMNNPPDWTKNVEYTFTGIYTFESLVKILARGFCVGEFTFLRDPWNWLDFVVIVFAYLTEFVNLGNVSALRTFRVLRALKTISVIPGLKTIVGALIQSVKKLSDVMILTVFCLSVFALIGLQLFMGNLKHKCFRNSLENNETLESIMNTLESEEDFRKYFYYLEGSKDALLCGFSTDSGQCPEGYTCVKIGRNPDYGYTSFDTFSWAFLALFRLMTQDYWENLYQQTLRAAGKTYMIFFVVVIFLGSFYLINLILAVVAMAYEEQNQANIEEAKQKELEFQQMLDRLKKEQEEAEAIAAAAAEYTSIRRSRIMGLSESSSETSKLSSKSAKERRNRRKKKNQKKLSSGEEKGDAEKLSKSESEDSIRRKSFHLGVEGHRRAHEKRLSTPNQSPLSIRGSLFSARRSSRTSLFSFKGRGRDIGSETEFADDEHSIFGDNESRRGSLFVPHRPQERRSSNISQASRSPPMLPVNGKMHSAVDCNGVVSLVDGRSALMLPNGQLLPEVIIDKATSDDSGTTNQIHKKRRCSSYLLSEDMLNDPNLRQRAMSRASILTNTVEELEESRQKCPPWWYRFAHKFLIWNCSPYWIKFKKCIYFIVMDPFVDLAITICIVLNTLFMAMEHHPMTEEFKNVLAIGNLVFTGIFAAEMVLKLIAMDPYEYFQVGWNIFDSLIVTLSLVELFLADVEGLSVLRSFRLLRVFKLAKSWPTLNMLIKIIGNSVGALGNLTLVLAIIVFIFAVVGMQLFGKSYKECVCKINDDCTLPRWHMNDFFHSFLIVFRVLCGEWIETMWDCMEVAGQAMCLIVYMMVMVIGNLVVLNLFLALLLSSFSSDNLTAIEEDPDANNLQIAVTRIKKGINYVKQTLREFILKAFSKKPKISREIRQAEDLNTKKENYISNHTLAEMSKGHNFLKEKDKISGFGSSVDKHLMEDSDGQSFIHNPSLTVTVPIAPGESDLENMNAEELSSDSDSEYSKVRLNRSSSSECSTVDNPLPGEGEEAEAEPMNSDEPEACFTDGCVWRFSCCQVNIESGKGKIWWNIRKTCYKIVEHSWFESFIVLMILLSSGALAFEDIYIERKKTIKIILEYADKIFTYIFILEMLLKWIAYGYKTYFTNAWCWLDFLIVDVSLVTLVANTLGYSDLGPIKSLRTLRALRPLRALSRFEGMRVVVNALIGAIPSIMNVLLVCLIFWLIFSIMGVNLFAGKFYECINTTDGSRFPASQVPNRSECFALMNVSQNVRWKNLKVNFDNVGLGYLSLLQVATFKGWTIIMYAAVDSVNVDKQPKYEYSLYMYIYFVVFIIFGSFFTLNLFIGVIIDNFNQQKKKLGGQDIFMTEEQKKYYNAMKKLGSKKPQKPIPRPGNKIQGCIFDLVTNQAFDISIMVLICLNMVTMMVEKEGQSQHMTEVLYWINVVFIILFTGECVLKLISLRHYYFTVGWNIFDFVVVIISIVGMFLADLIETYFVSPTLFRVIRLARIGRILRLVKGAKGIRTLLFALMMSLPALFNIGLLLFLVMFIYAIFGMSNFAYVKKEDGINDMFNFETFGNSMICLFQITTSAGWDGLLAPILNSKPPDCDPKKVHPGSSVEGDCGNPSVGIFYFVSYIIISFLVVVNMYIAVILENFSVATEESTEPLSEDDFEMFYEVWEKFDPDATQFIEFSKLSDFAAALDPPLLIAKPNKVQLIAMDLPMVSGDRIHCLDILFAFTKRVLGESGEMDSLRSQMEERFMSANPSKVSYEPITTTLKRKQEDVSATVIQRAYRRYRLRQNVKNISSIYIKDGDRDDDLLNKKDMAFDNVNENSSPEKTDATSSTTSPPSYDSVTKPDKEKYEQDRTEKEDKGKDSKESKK

SMILES	IC50
C#CC[C@H](N)C(=O)N[C@@H](Cc1ccc(O)cc1)C(=O)N[C@H]1CSSC[C@@H]2NC(=O)[C@@H]3CSSC[C@@H](C(=O)N[C@@H](CCCNC(=N)N)C(=O)N[C@@H](CCCCN)C(=O)N[C@@H](CCC(=O)O)C(=O)N[C@H](C(N)=O)[C@@H](C)CC)NC(=O)[C@H](Cc4c[nH]c5cc(C)ccc45)NC(=O)[C@H](CC(C)C)NC(=O)[C@H](CCCCN)NC(=O)[C@H](CSSC[C@H](NC(=O)[C@H]([C@@H](C)O)NC(=O)[C@H](Cc4c[nH]c5ccccc45)NC(=O)[C@H](CCCC)NC(=O)[C@H](Cc4c[nH]c5ccccc45)NC(=O)[C@H](CCCCN)NC(=O)[C@H](CCC(N)=O)NC1=O)C(=O)N[C@@H](CC(=O)O)C(=O)N[C@@H](CO)C(=O)N[C@@H](CCCCN)C(=O)N[C@@H](CCCNC(=N)N)C(=O)N[C@@H](C)C(=O)N3)NC(=O)[C@H](CCCNC(=N)N)NC(=O)[C@H](CC(C)C)NC(=O)CNC(=O)[C@H](CCC(=O)O)NC2=O	19 nM
C#CC[C@H](N)C(=O)N[C@@H](Cc1ccc(O)cc1)C(=O)N[C@H]1CSSC[C@@H]2NC(=O)[C@@H]3CSSC[C@@H](C(=O)N[C@@H](CCCNC(=N)N)C(=O)N[C@@H](CCCCN)C(=O)N[C@@H](CCC(=O)O)C(=O)N[C@@H](Cc4ccccc4)C(N)=O)NC(=O)[C@H](Cc4c[nH]c5ccc(Br)cc45)NC(=O)[C@H](CC(C)C)NC(=O)[C@H](CCCCN)NC(=O)[C@H](CSSC[C@H](NC(=O)[C@H]([C@@H](C)O)NC(=O)[C@H](Cc4c[nH]c5ccccc45)NC(=O)[C@H](CCCC)NC(=O)[C@H](Cc4c[nH]c5ccccc45)NC(=O)[C@H](CCCCN)NC(=O)[C@H](CCC(N)=O)NC1=O)C(=O)N[C@@H](CC(=O)O)C(=O)N[C@@H](CO)C(=O)N[C@@H](CCCCN)C(=O)N[C@@H](CCCNC(=N)N)C(=O)N[C@@H](C)C(=O)N3)NC(=O)[C@H](CCCNC(=N)N)NC(=O)[C@H](CC(C)C)NC(=O)CNC(=O)[C@H](CCC(=O)O)NC2=O	1.1 nM
C#CC[C@H](NC(=O)[C@H](C)N)C(=O)N[C@H]1CSSC[C@@H]2NC(=O)[C@@H]3CSSC[C@@H](C(=O)N[C@@H](CCCNC(=N)N)C(=O)N[C@@H](CCCCN)C(=O)N[C@@H](CCC(=O)O)C(=O)N[C@H](C(N)=O)[C@@H](C)CC)NC(=O)[C@H](Cc4c[nH]c5ccc(Br)cc45)NC(=O)[C@H](CC(C)C)NC(=O)[C@H](CCCCN)NC(=O)[C@H](CSSC[C@H](NC(=O)[C@H]([C@@H](C)O)NC(=O)[C@H](Cc4c[nH]c5ccccc45)NC(=O)[C@H](CCCC)NC(=O)[C@H](Cc4c[nH]c5ccccc45)NC(=O)[C@H](CCCCN)NC(=O)[C@H](CCC(N)=O)NC1=O)C(=O)N[C@@H](CC(=O)O)C(=O)N[C@@H](CO)C(=O)N[C@@H](CCCCN)C(=O)N[C@@H](CCCNC(=N)N)C(=O)N[C@@H](C)C(=O)N3)NC(=O)[C@H](CCCNC(=N)N)NC(=O)[C@H](CC(C)C)NC(=O)CNC(=O)[C@H](CCC(=O)O)NC2=O	1 nM
C#CC[C@H](N)C(=O)N[C@@H](Cc1ccc(O)cc1)C(=O)N[C@H]1CSSC[C@@H]2NC(=O)[C@@H]3CSSC[C@@H](C(=O)N[C@@H](CCCNC(=N)N)C(=O)N[C@@H](CCCCN)C(=O)N[C@@H](CCC(=O)O)C(=O)N[C@@H](CC4CCCCC4)C(N)=O)NC(=O)[C@H](Cc4c[nH]c5ccccc45)NC(=O)[C@H](CC(C)C)NC(=O)[C@H](CCCCN)NC(=O)[C@H](CSSC[C@H](NC(=O)[C@H]([C@@H](C)O)NC(=O)[C@H](Cc4c[nH]c5ccccc45)NC(=O)[C@H](CCCC)NC(=O)[C@H](Cc4c[nH]c5ccccc45)NC(=O)[C@H](CCCCN)NC(=O)[C@H](CCC(N)=O)NC1=O)C(=O)N[C@@H](CC(=O)O)C(=O)N[C@@H](CO)C(=O)N[C@@H](CCCCN)C(=O)N[C@@H](CCCNC(=N)N)C(=O)N[C@@H](C)C(=O)N3)NC(=O)[C@H](CCCNC(=N)N)NC(=O)[C@H](CC(C)C)NC(=O)CNC(=O)[C@H](CCC(=O)O)NC2=O	0.6 nM
C#CC[C@H](NC(=O)[C@@H](N)CCCCN)C(=O)N[C@H]1CSSC[C@@H]2NC(=O)[C@@H]3CSSC[C@@H](C(=O)N[C@@H](CCCNC(=N)N)C(=O)N[C@@H](CCCCN)C(=O)N[C@@H](CCC(=O)O)C(=O)N[C@H](C(N)=O)[C@@H](C)CC)NC(=O)[C@H](Cc4c[nH]c5ccc(Br)cc45)NC(=O)[C@H](CC(C)C)NC(=O)[C@H](CCCCN)NC(=O)[C@H](CSSC[C@H](NC(=O)[C@H]([C@@H](C)O)NC(=O)[C@H](Cc4c[nH]c5ccccc45)NC(=O)[C@H](CCCC)NC(=O)[C@H](Cc4c[nH]c5ccccc45)NC(=O)[C@H](CCCCN)NC(=O)[C@H](CCC(N)=O)NC1=O)C(=O)N[C@@H](CC(=O)O)C(=O)N[C@@H](CO)C(=O)N[C@@H](CCCCN)C(=O)N[C@@H](CCCNC(=N)N)C(=O)N[C@@H](C)C(=O)N3)NC(=O)[C@H](CCCNC(=N)N)NC(=O)[C@H](CC(C)C)NC(=O)CNC(=O)[C@H](CCC(=O)O)NC2=O	5.7 nM
C#CC[C@H](N)C(=O)N[C@@H](Cc1ccc(O)cc1)C(=O)N[C@H]1CSSC[C@@H]2NC(=O)[C@@H]3CSSC[C@@H](C(=O)N[C@@H](CCCNC(=N)N)C(=O)N[C@@H](CCCCN)C(=O)N[C@@H](CCC(=O)O)C(=O)N[C@H](C(N)=O)[C@@H](C)CC)NC(=O)[C@H](CCc4ccccc4)NC(=O)[C@H](CC(C)C)NC(=O)[C@H](CCCCN)NC(=O)[C@H](CSSC[C@H](NC(=O)[C@H]([C@@H](C)O)NC(=O)[C@H](Cc4c[nH]c5ccccc45)NC(=O)[C@H](CCCC)NC(=O)[C@H](Cc4c[nH]c5ccccc45)NC(=O)[C@H](CCCCN)NC(=O)[C@H](CCC(N)=O)NC1=O)C(=O)N[C@@H](CC(=O)O)C(=O)N[C@@H](CO)C(=O)N[C@@H](CCCCN)C(=O)N[C@@H](CCCNC(=N)N)C(=O)N[C@@H](C)C(=O)N3)NC(=O)[C@H](CCCNC(=N)N)NC(=O)[C@H](CC(C)C)NC(=O)CNC(=O)[C@H](CCC(=O)O)NC2=O	> 1000 nM
C#CC[C@H](N)C(=O)N[C@@H](Cc1ccc(O)cc1)C(=O)N[C@H]1CSSC[C@@H]2NC(=O)[C@@H]3CSSC[C@@H](C(=O)N[C@@H](CCCNC(=N)N)C(=O)N[C@@H](CCCCN)C(=O)N[C@@H](CCC(=O)O)C(=O)N[C@H](C(N)=O)[C@@H](C)CC)NC(=O)[C@H](Cc4c[nH]c5ccccc45)NC(=O)[C@H](CC(C)C)NC(=O)[C@H](CCCCN)NC(=O)[C@H](CSSC[C@H](NC(=O)[C@H]([C@@H](C)O)NC(=O)[C@H](Cc4c[nH]c5ccccc45)NC(=O)[C@H](CCCC)NC(=O)[C@H](Cc4ccc5ccccc5c4)NC(=O)[C@H](CCCCN)NC(=O)[C@H](CCC(N)=O)NC1=O)C(=O)N[C@@H](CC(=O)O)C(=O)N[C@@H](CO)C(=O)N[C@@H](CCCCN)C(=O)N[C@@H](CCCNC(=N)N)C(=O)N[C@@H](C)C(=O)N3)NC(=O)[C@H](CCCNC(=N)N)NC(=O)[C@H](CC(C)C)NC(=O)CNC(=O)[C@H](CCC(=O)O)NC2=O	22 nM
C#CC[C@H](N)C(=O)N[C@@H](Cc1ccc(O)cc1)C(=O)N[C@H]1CSSC[C@@H]2NC(=O)[C@@H]3CSSC[C@@H](C(=O)N[C@@H](CCCNC(=N)N)C(=O)N[C@@H](CCCCN)C(=O)N[C@@H](CCC(=O)O)C(=O)N[C@H](C(N)=O)[C@@H](C)CC)NC(=O)[C@H](Cc4c[nH]c5ccccc45)NC(=O)[C@H]([C@@H](C)CC)NC(=O)[C@H](CCCCN)NC(=O)[C@H](CSSC[C@H](NC(=O)[C@H]([C@@H](C)O)NC(=O)[C@H](Cc4c[nH]c5ccccc45)NC(=O)[C@H](CCCC)NC(=O)[C@H](Cc4c[nH]c5ccccc45)NC(=O)[C@H](CCCCN)NC(=O)[C@H](CCC(N)=O)NC1=O)C(=O)N[C@@H](CC(=O)O)C(=O)N[C@@H](CO)C(=O)N[C@@H](CCCCN)C(=O)N[C@@H](CCCNC(=N)N)C(=O)N[C@@H](C)C(=O)N3)NC(=O)[C@H](CCCNC(=N)N)NC(=O)[C@H](CC(C)C)NC(=O)CNC(=O)[C@H](CCC(=O)O)NC2=O	1.1 nM
C#CC[C@H](N)C(=O)N[C@@H](Cc1ccc(O)cc1)C(=O)N[C@H]1CSSC[C@@H]2NC(=O)[C@@H]3CSSC[C@@H](C(=O)N[C@@H](CCCNC(=N)N)C(=O)N[C@@H](CCCCN)C(=O)N[C@@H](CCC(=O)O)C(=O)N[C@H](C(N)=O)[C@@H](C)CC)NC(=O)[C@H](Cc4c[nH]c5c(Br)cccc45)NC(=O)[C@H](CC(C)C)NC(=O)[C@H](CCCCN)NC(=O)[C@H](CSSC[C@H](NC(=O)[C@H]([C@@H](C)O)NC(=O)[C@H](Cc4c[nH]c5ccccc45)NC(=O)[C@H](CCCC)NC(=O)[C@H](Cc4c[nH]c5ccccc45)NC(=O)[C@H](CCCCN)NC(=O)[C@H](CCC(N)=O)NC1=O)C(=O)N[C@@H](CC(=O)O)C(=O)N[C@@H](CO)C(=O)N[C@@H](CCCCN)C(=O)N[C@@H](CCCNC(=N)N)C(=O)N[C@@H](C)C(=O)N3)NC(=O)[C@H](CCCNC(=N)N)NC(=O)[C@H](CC(C)C)NC(=O)CNC(=O)[C@H](CCC(=O)O)NC2=O	24 nM
C#CC[C@H](N)C(=O)N[C@@H](Cc1ccc(O)cc1)C(=O)N[C@H]1CSSC[C@@H]2NC(=O)[C@@H]3CSSC[C@@H](C(=O)N[C@@H](CCCNC(=N)N)C(=O)N[C@@H](CCCCN)C(=O)N[C@@H](CCC(=O)O)C(=O)N[C@@H](CCc4ccccc4)C(N)=O)NC(=O)[C@H](Cc4c[nH]c5ccc(Br)cc45)NC(=O)[C@H](CC(C)C)NC(=O)[C@H](CCCCN)NC(=O)[C@H](CSSC[C@H](NC(=O)[C@H]([C@@H](C)O)NC(=O)[C@H](Cc4c[nH]c5ccccc45)NC(=O)[C@H](CCCC)NC(=O)[C@H](Cc4c[nH]c5ccccc45)NC(=O)[C@H](CCCCN)NC(=O)[C@H](CCC(N)=O)NC1=O)C(=O)N[C@@H](CC(=O)O)C(=O)N[C@@H](CO)C(=O)N[C@@H](CCCCN)C(=O)N[C@@H](CCCNC(=N)N)C(=O)N[C@@H](C)C(=O)N3)NC(=O)[C@H](CCCNC(=N)N)NC(=O)[C@H](CC(C)C)NC(=O)CNC(=O)[C@H](CCC(=O)O)NC2=O	1.1 nM
C#CC[C@H](N)C(=O)N[C@@H](Cc1ccc(O)cc1)C(=O)N[C@H]1CSSC[C@@H]2NC(=O)[C@@H]3CSSC[C@@H](C(=O)N[C@@H](CCCNC(=N)N)C(=O)N[C@@H](CCCCN)C(=O)N[C@@H](CCC(=O)O)C(=O)N[C@H](C(N)=O)[C@@H](C)CC)NC(=O)[C@H](Cc4c[nH]c5ccccc45)NC(=O)[C@H](CC(C)C)NC(=O)[C@H](CCCCN)NC(=O)[C@H](CSSC[C@H](NC(=O)[C@H]([C@@H](C)O)NC(=O)[C@H](Cc4c[nH]c5ccccc45)NC(=O)[C@H](CCCC)NC(=O)[C@H](Cc4c[nH]c5ccc(Br)cc45)NC(=O)[C@H](CCCCN)NC(=O)[C@H](CCC(N)=O)NC1=O)C(=O)N[C@@H](CC(=O)O)C(=O)N[C@@H](CO)C(=O)N[C@@H](CCCCN)C(=O)N[C@@H](CCCNC(=N)N)C(=O)N[C@@H](C)C(=O)N3)NC(=O)[C@H](CCCNC(=N)N)NC(=O)[C@H](CC(C)C)NC(=O)CNC(=O)[C@H](CCC(=O)O)NC2=O	22 nM
